This is an account of results in patent publication US7994209B2, “3-phenoxymethylpyrrolidine compounds” (Theravance, Inc., priority 2009, dated 2011).

Test [1] deals with T1, hNET (Homo sapiens, UniProt P23975). In words: hNET membrane radioligand binding assay (3H-nisoxetine), Assay 1.
The target in test [2] is T2, hSERT (Homo sapiens, UniProt P31645). In words: hSERT neurotransmitter uptake assay (3H-5-HT), Assay 2. In kind it is cell-based. Further details: expressed in transfected cells; host or cells: HEK-293. Conditions: serotonin reuptake inhibition, 3H-5-HT uptake, HEK-293 hSERT cells (values without asterisk); read-out: SERT pIC50 (converted).
Test [3] has as its target T2, hSERT. In words: hSERT membrane radioligand binding assay (3H-citalopram), Assay 1. To be noted: SERT pKi, hSERT HEK-293 membranes, 1.0 nM 3H-citalopram; values given as lower bounds.
Experimental: Membrane radioligand binding assays were used to measure inhibition of labeled ligand (^3H-citalopram or ^3H-nisoxetine or ^3H-WIN35428) binding to membranes prepared from cells expressing the respective human recombinant transporter (hSERT or hNET or hDAT) in order to determine the pKi values of test compounds at the transporters.
Recombinant human embryonic kidney (HEK-293) derived cell lines stably transfected with hSERT or hNET, respectively, were grown in DMEM medium supplemented with 10% dialyzed FBS (for hSERT) or FBS (for hNET), 100 μg/mL penicillin, 100 μg/mL streptomycin, 2 mM L-glutamine and 250 μg/mL of the aminoglycoside antibiotic G418, in a 5% CO2 humidified incubator at 37° C. When cultures reached 80% confluence, the cells were washed thoroughly in PBS (without Ca^2+ and Mg^2+) and lifted with 5 mM EDTA in PBS. Cells were pelleted by centrifugation, resuspended in lysis buffer (10 mM Tris-HCl, pH7.5 containing 1 mM EDTA), homogenized, pelleted by centrifugation, then resuspended in 50 mM Tris-HCl, pH 7.5 and 10% sucrose at 4° C. Protein concentration of the membrane suspension was determined using a Bio-Rad Bradford Protein Assay kit. Membranes were snap frozen and stored at −80° C.
Binding assays were performed in a 96-well assay plate in a total volume of 200 μl assay buffer (50 mM Tris-HCl, 120 mM NaCl, 5 mM KCl, pH 7.4) with 0.5, 1, and 3 μg membrane protein, for SERT, NET and DAT, respectively.
Stock solutions (10 mM in DMSO) of test compound were prepared and serial dilutions made using Dilution Buffer (50 mM Tris-HCl, 120 mM NaCl, 5 mM KCl, pH 7.4, 0.1% BSA, 400 μM ascorbic acid).
Following a 60 minute incubation at 22° C. (or a period sufficient to reach equilibrium), the membranes were harvested by rapid filtration over a 96-well UniFilter GF/B plate, pretreated with 0.3% polyethyleneimine, and washed 6 times with 300 μl wash buffer (50 mM Tris-HCl, 0.9% NaCl, pH 7.5 at 4° C.). Plates were dried overnight at room temperature, approximately 45 μl of MicroScint™-20 (Perkin Elmer) added and bound radioactivity quantitated via liquid scintillation spectroscopy. Inhibition curves and saturation isotherms were analyzed using GraphPad Prism Software package (GraphPad Software, Inc., San Diego, Calif.). IC50 values were generated from concentration response curves using the Sigmoidal Dose Response (variable slope) algorithm in Prism GraphPad.
The target in test [4] is T1, hNET. In words: hNET neurotransmitter uptake assay (3H-NE), Assay 2. In kind it is cell-based. To be noted: norepinephrine reuptake inhibition, 3H-NE uptake, HEK-293 hNET cells (values without asterisk); read-out: NET pIC50 (converted). Details: expressed in transfected cells; host or cells: HEK-293.

Some results are limits rather than exact numbers.

T2 sequence (P31645 whole entry): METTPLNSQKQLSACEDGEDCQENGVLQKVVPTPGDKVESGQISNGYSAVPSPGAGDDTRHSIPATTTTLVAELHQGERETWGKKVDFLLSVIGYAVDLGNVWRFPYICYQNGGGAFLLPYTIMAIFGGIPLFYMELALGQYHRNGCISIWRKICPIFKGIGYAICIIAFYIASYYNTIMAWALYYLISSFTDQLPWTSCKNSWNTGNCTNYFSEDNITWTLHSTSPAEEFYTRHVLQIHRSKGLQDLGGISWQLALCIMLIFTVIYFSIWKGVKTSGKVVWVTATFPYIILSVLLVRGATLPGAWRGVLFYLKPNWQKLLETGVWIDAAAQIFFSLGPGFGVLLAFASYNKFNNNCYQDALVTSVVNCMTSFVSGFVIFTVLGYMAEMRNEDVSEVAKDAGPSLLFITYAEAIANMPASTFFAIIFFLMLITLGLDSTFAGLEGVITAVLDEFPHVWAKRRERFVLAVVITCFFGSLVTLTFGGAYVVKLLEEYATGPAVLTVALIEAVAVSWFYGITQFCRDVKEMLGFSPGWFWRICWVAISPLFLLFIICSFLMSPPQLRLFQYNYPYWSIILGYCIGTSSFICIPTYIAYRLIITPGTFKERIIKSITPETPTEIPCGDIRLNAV
T1 sequence (P23975 whole entry): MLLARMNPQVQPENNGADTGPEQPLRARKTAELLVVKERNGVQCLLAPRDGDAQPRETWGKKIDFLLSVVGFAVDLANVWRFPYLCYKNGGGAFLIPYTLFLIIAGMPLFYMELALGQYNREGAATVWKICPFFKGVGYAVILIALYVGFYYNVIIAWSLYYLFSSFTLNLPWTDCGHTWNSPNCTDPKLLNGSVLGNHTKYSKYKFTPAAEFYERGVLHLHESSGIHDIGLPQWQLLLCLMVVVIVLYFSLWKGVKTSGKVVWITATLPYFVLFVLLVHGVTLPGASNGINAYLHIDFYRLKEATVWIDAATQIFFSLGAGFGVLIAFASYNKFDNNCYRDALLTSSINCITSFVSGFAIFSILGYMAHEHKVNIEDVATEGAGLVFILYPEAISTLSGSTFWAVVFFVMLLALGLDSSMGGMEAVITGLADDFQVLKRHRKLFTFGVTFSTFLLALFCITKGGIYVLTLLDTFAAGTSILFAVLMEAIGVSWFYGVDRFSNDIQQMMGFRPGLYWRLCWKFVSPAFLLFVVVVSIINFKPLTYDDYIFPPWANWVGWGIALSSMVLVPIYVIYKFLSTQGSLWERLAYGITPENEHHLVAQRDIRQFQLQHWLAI

As to `Cc1cc(Cl)ccc1O[C@@H](CC(C)C)[C@H]1CCNC1` [Example 10-47, (S)-3-[(S)-1-(4-Chloro-2-methylphenoxy)-3-methylbutyl]pyrrolidine], the Ki in test [1] and in test [3] was no more than 10 nM in each case. Also, the IC50 in test [2] and in test [4] was no more than 10 nM throughout.
In the case of `CC(C)CC(Oc1ccc(Cl)c(F)c1)C1CCNC1` (centres unmarked) [Example 10-70, 3-[1-(4-Chloro-3-fluorophenoxy)-3-methylbutyl]pyrrolidine], the Ki in test [1] and in test [3] was no more than 10 nM each time. In addition, the IC50 in test [2] and in test [4] was no more than 10 nM each time.
As for `Cc1cc(Cl)ccc1O[C@@H](C1CC1)[C@H]1CCNC1` [Example 16-29, (S)-3-[(S)-(4-Chloro-2-methylphenoxy)cyclopropylmethyl]pyrrolidine], the inhibition constant Ki in test [1] and in test [3] was no more than 10 nM in each case. The IC50 in test [2] and in test [4] was no more than 10 nM in each case.
With `CCC[C@@H](Oc1cccc(C)c1C)[C@@H]1CCNC1` [Example 4-63, (R)-3-[(R)-1-(2,3-Dimethylphenoxy)butyl]pyrrolidine], the Ki in test [1] and in test [3] was no more than 10 nM in each case. Moreover, the IC50 in test [2] and in test [4] was no more than 10 nM each time.
For the molecule `CC(C)CC(Oc1cc(F)cc(Cl)c1)C1CCNC1` (centres unmarked) [Example 10-82, 3-[1-(3-Chloro-5-fluorophenoxy)-3-methylbutyl]pyrrolidine], the Ki in test [1] and in test [3] was no more than 10 nM throughout. Moreover, the IC50 in test [2] and in test [4] was no more than 10 nM each time.
For the molecule `Cc1ccc(O[C@@H](C2CC2)[C@H]2CCNC2)c(Br)c1` [Example 16-25, (S)-3-[(S)-(2-Bromo-4-methylphenoxy)cyclopropylmethyl]pyrrolidine], the Ki in test [1] and in test [3] was no more than 10 nM throughout. Also, the IC50 in test [2] and in test [4] was no more than 10 nM throughout.
As for `CC[C@H](Oc1cc(F)c(Cl)cc1OC)[C@H]1CCNC1` [Example 2-70, (S)-3-[(S)-1-(4-Chloro-5-fluoro-2-methoxyphenoxy)propyl]pyrrolidine], the inhibitory constant (Ki) in test [1] and in test [3] was no more than 10 nM each time. Also, the IC50 in test [2] was no more than 100 nM; in test [4], no more than 10 nM.
As to `CC(C)C[C@@H](Oc1ccc(Cl)cc1Cl)[C@H]1CCNC1` [Example 10-44, (S)-3-[(R)-1-(2,4-Dichlorophenoxy)-3-methylbutyl]pyrrolidine], the Ki is no more than 100 nM in test [1] and no more than 10 nM in test [3]. The IC50 in test [2] and in test [4] was no more than 10 nM throughout.
Regarding `Cc1ccc(O[C@@H](C(C)C)[C@H]2CCNC2)c(Cl)c1` [Example 6-24, (S)-3-[(S)-1-(2-Chloro-4-methylphenoxy)-2-methylpropyl]pyrrolidine], the inhibitory constant (Ki) in test [1] and in test [3] was no more than 10 nM in each case. Moreover, the IC50 in test [2] and in test [4] was no more than 10 nM each time.
With `CCCC[C@@H](Oc1cc(Cl)cc(Cl)c1)[C@H]1CCNC1` [Example 8-13, (S)-3-[(R)-1-(3,5-Dichlorophenoxy)pentyl]pyrrolidine], the inhibitory constant (Ki) in test [1] and in test [3] was no more than 10 nM each time. Also, the IC50 in test [2] and in test [4] was no more than 10 nM throughout.
For `CC[C@H](Oc1ccc(Cl)c(Cl)c1)[C@H]1CCNC1` [Example 2-7, (S)-3-[(S)-1-(3,4-Dichlorophenoxy)propyl]pyrrolidine], the inhibition constant (Ki) in test [1] and in test [3] was no more than 10 nM throughout. Besides, the IC50 in test [2] and in test [4] was no more than 10 nM each time.
Turning to `Clc1cccc(O[C@@H](C2CC2)[C@H]2CCNC2)c1Cl` [Example 16-8, (S)-3-[(S)cyclopropyl-(2,3-dichlorophenoxy)methyl]pyrrolidine], the Ki in test [1] and in test [3] was no more than 10 nM in each case. For the same molecule, the IC50 in test [2] and in test [4] was no more than 10 nM throughout.
Regarding `CC[C@@H](Oc1ccc(Cl)cc1C)[C@@H]1CCNC1` [Example 2-60, (R)-3-[(R)-1-(4-Chloro-2-methylphenoxy)propyl]pyrrolidine], the inhibition constant (Ki) was no more than 100 nM in test [1] and no more than 10 nM in test [3]. Further, the IC50 in test [2] and in test [4] was no more than 100 nM in each case.
For `CCC[C@@H](Oc1ccc(Cl)cc1)[C@H]1CCNC1` [Example 4-2, (S)-3-[(R)-1-(4-Chlorophenoxy)butyl]pyrrolidine], the Ki in test [1] and in test [3] was no more than 10 nM in each case. The IC50 in test [2] is no more than 10 nM; in test [4], no more than 100 nM.
With `CCC[C@H](Oc1cccc(Cl)c1Cl)[C@H]1CCNC1` [Example 3, (S)-3-[(S)-1-(2,3-Dichlorophenoxy)butyl]pyrrolidine], the inhibition constant Ki in test [1] and in test [3] was no more than 10 nM in each case. For the same molecule, the IC50 in test [2] and in test [4] was no more than 10 nM throughout.
For `CC(C)CC(Oc1cccc(Cl)c1C(F)(F)F)C1CCNC1` (centres unmarked) [Example 10-35, 3-[1-(3-Chloro-2-trifluoromethylphenoxy)-3-methylbutyl]pyrrolidine], the inhibition constant Ki in test [1] and in test [3] was no more than 10 nM throughout. Besides, the IC50 in test [2] and in test [4] was no more than 10 nM each time.
Regarding `COc1cc(Cl)ccc1O[C@@H](C(C)C)[C@H]1CCNC1` [Example 6-47, (S)-3-[(S)-1-(4-Chloro-2-methoxyphenoxy)-2-methylpropyl]pyrrolidine], the inhibition constant Ki in test [1] and in test [3] was no more than 10 nM throughout. The IC50 in test [2] and in test [4] was no more than 10 nM throughout.
`Cc1cc(Cl)cc(Cl)c1O[C@@H](C1CC1)[C@H]1CCNC1` [Example 16-77, (S)-3-[(S)cyclopropyl-(2,4-dichloro-6-methylphenoxy)methyl]pyrrolidine]: the Ki in test [1] and in test [3] was no more than 10 nM in each case. The values for the IC50 in test [2] and in test [4] were no more than 10 nM and no more than 100 nM, respectively.
Turning to `CC(C)C[C@@H](Oc1cccc(F)c1Cl)[C@H]1CCNC1` [Example 10-27, (S)-3-[(R)-1-(2-Chloro-3-fluorophenoxy)-3-methylbutyl]pyrrolidine], the Ki in test [1] and in test [3] was no more than 10 nM each time. In addition, the IC50 in test [2] and in test [4] was no more than 10 nM throughout.
For the molecule `CC(C)[C@H](Oc1ccc(Cl)c(F)c1F)[C@H]1CCNC1` [Example 6-10, (S)-3-[(S)-1-(4-Chloro-2,3-difluorophenoxy)-2-methylpropyl]pyrrolidine], the inhibition constant (Ki) in test [1] and in test [3] was no more than 10 nM throughout. For the same molecule, the IC50 in test [2] and in test [4] was no more than 10 nM in each case.
On to `CC(C)C[C@@H](Oc1ccc(Cl)c(Cl)c1)[C@H]1CCNC1` [Example 10-73, (S)-3-[(R)-1-(3,4-Dichlorophenoxy)-3-methylbutyl]pyrrolidine], for which the inhibition constant (Ki) in test [1] and in test [3] was no more than 10 nM throughout. The IC50 in test [2] and in test [4] was no more than 10 nM throughout.
On to `Clc1ccc(O[C@@H](C2CC2)[C@H]2CCNC2)c(Cl)c1` [Example 16-19, (S)-3-[(S)cyclopropyl-(2,4-dichlorophenoxy)methyl]pyrrolidine], for which the Ki in test [1] and in test [3] was no more than 10 nM throughout. The IC50 in test [2] and in test [4] was no more than 10 nM in each case.
Take `CC[C@H](Oc1cc(F)c(OC)c(F)c1)[C@H]1CCNC1` [Example 2-22, (S)-3-[(S)-1-(3,5-Difluoro-4-methoxyphenoxy)propyl]pyrrolidine]: the inhibitory constant (Ki) in test [1] and in test [3] was no more than 10 nM throughout. Further, the IC50 in test [2] was no more than 100 nM; in test [4] it was no more than 10 nM.
Take `COc1cc(Cl)ccc1O[C@@H](CC(C)C)[C@H]1CCNC1` [Example 10-49, (S)-3-[(S)-1-(4-Chloro-2-methoxyphenoxy)-3-methylbutyl]pyrrolidine]: the Ki in test [1] and in test [3] was no more than 10 nM in each case. The IC50 in test [2] and in test [4] was no more than 10 nM in each case.
Regarding `Fc1cc(O[C@@H](C2CC2)[C@H]2CCNC2)ccc1Cl` [Example 16-93, (S)-3-[(S)-(4-Chloro-3-fluorophenoxy)cyclopropylmethyl]pyrrolidine], the inhibition constant Ki in test [1] and in test [3] was no more than 10 nM in each case. The IC50 in test [2] and in test [4] was no more than 10 nM throughout.
Take `CC(C)C[C@H](Oc1cc(F)cc(Cl)c1)[C@H]1CCNC1` [Example 10-81, (S)-3-[(S)-1-(3-Chloro-5-fluorophenoxy)-3-methylbutyl]pyrrolidine]: the Ki in test [1] and in test [3] was no more than 10 nM throughout. In addition, the IC50 in test [2] and in test [4] was no more than 10 nM each time.
For the molecule `CCC[C@H](Oc1ccc(Cl)cc1C)[C@H]1CCNC1` [Example 4-58, (S)-3-[(S)-1-(4-Chloro-2-methylphenoxy)butyl]pyrrolidine], the Ki in test [1] and in test [3] was no more than 10 nM throughout. In addition, the IC50 in test [2] and in test [4] was no more than 10 nM each time.
As to `CC(C)C[C@H](Oc1c(F)cccc1Cl)[C@H]1CCNC1` [Example 10-52, (S)-3-[(S)-1-(2-Chloro-6-fluorophenoxy)-3-methylbutyl]pyrrolidine], the Ki in test [1] and in test [3] was no more than 10 nM each time. The IC50 in test [2] and in test [4] was no more than 10 nM throughout.
Consider `CC[C@H](Oc1ccc(F)cc1Cl)[C@H]1CCNC1` [Example 2-32, (S)-3-[(S)-1-(2-Chloro-4-fluorophenoxy)propyl]pyrrolidine], for which the Ki in test [1] and in test [3] was no more than 10 nM each time. In addition, the IC50 in test [2] and in test [4] was no more than 10 nM in each case.

The term Ki denotes the equilibrium dissociation constant of an inhibitor or competing ligand from its target. Lower therefore signals a stronger hold on the target.
